The text below walks through data of paper PMC7073229, “Novel Quinoline Compounds Active in Cancer Cells through Coupled DNA Methyltransferase Inhibition and Degradation” (Cancers, 2020).

The test system of series [1] is HL60 APL cells. Nature of the series: Antiproliferative activity, MTT. The format is cell-based. The settings on record: Homo sapiens, HL-60, 48 h treatment, read-out: Antiproliferative Activity (IC50 ± SD) HL60. The protocol:
(§1) U937 histiocytic lymphoma, HL60 acute promyelocytic leukemia, H1299 lung adenocarcinoma, MCF7 breast carcinoma, HT1080 fibrosarcoma, M14 melanoma, HeLa epithelial cervix carcinoma and peripheral blood B lymphocyte AHH1 human cell lines were obtained from the Deutsche Sammlung für Mikroorganismen and Zellkulturen (DSZM, Braunschweig, Germany) and were maintained in RPMI 1640 medium contained 10% fetal bovine serum (FBS), 2 mM L-glutamine, and antibiotics in a humidified atmosphere with 5% CO2 at 37 °C. HCT116 (ATCC, VA, USA) cells were propagated in Dulbecco’s modified Eagle medium (DMEM) (Euroclone, Milan, Italy) with 10% fetal bovine serum (FBS; Euroclone, Milan, Italy), 2 mM L-glutamine (Euroclone, Milan, Italy), and antibiotics (100 U/mL penicillin, 100 µg/mL streptomycin) (Euroclone, Milan, Italy). The experiments were performed with early (3–20) cell passages. Cell lines were treated with compounds at the indicated concentrations in the exponential growth phase.
(§2) Then, increasing concentrations of different compounds (ranging from 0.01 to 100 μM) were added, and cell proliferation was evaluated by a MTT assay after 48 h. Cells exposed to DMSO were used as control. The effect of compounds was evaluated using the CellTiter-Glo luminescent cell viability assay (Promega, Madison, WI, USA) according to the manufacturer’s instructions. For HCT116, 5 × 10^4 cells/well were plated in 24-well plate and treated, in duplicate, with compounds at several concentrations for 24 and 48 h of induction. After treatments, MTT solution was added for 3 h at 0.5 mg/mL, the obtained crystals were dissolved in DMSO (Sigma-Aldrich, Milan, Italy), and the absorbance was read at a wavelength of 570 nm with reader TECAN M-200. All the experiments were performed in triplicate and repeated at least three times.
(§3) IC50 values of compounds against cellular viability were determined by using nonlinear regression fitting curves with GraphPad Prism 8. The t-test used for statistical analyses was performed with GraphPad Prism 8. All the tests were one-tailed and a p-value < 0.05 was considered statistically significant.

Series [2] has as its system U937 AML cells. Kind of series: Antiproliferative activity, MTT. The settings on record: Homo sapiens, U-937, 48 h treatment, read-out: Antiproliferative Activity (IC50 ± SD) U937. The format is cell-based. The protocol: as §1, §2, §3
In series [3] the target is T1, C-terminal catalytic domain of human DNMT3A (hDNMT3A) (Homo sapiens, UniProt Q9Y6K1).
T1 construct: the C-terminal catalytic domain of human DNMT3A (hDNMT3A)
Kind of series: DNMT3A restriction-based fluorescence assay. The settings on record: mean of at least two independent experiments; read-out: Enzyme Inhibition (EC50 ± SD) hDNMT3A. The format is biochemical. How it is done:
DNMT3A enzyme inhibition was adapted from the restriction-based fluorescence assay protocol described in Ceccaldi et al.. Briefly, a biotin-labelled oligonucleotide at the 5’ end is hybridized to his complementary strand labelled at the 3’ end with 6-carboxyfluorescein. The DNA duplex containing only one single CpG site overlapping with a restriction site of a methylation sensitive restriction enzyme is transferred in the wells coated with avidin. The methylation reaction is performed by adding human C-terminal DNMT3A at the final concentration of 4 ng/µL in a total volume of 50 µL in the presence of the inhibitors at various concentrations and the co-substrate SAM at the final concentration of 20 µM. The plate was incubated for 1 h at 37 °C, washed, and added with the methylation sensitive restriction enzyme HpyCH4IV, incubated for 1 h further at 37 °C, washed and the fluorescence measured with a PerkinElmer Envision Multilabel Plate Reader. The data are expressed as percentage of inhibition vs. log concentration (M). Data are normalized referring to the “restriction control” (wells coated with labelled duplex not treated nor exposed to DNMT3A, but only cleaved by HpyCH4IV) as the maximum of inhibition (100%) and to the “DMSO control” (wells coated with labelled duplex but treated just with 0.1% DMSO exposed to DNMT3A and then to HpyCH4IV) as the minimum of inhibition (0%; total methylation).

Series [4] concerns U937 cells. Kind of series: Sub-G1 peak, cell cycle flow cytometry. The format is cell-based, human. The settings on record: U937, 1 µM, 24 and 48 h. How it is done: Cell cycle analysis was performed on 5 × 10^5 fixed cells resuspended in a RNase A (3 mg/mL) and propidium iodide (PI) solution (1 mg/mL). Samples were analyzed with a C6 Accuri BD (Becton Dickinson & Co., San Jose, CA, USA). The percentage of apoptosis was measured analyzing sub-G1 peaks. Apoptotic cell death was also evaluated by using annexin V–fluorescein isothiocyanate (FITC) apoptosis kit (BD Bioscience) and assayed according to the manufacturer’s instructions. Cells double-stained for both annexin V and PI were analyzed by flow cytometry. PI was used in conjunction with annexin V–FITC to distinguish cells in the earlier stages of apoptosis (annexin V-FITC positive, PI negative) from those in later stages of apoptosis or that were already dead (annexin V–FITC positive, PI positive). Percentage of cells positive for caspase-3 activation was evaluated by Active Caspase-3 Apoptosis Kit (BD biosciences, Milan, Italy) according to the manufacturer’s instructions.
(In general: Flow cytometry measures light scatter and fluorescence of single cells or particles in a stream.)

Series [5] deals with KRAS21R G-quadruplex DNA. Nature of the series: FRET melting assay, G-quadruplex DNA. Format: binding. The protocol: (§4) Experimental procedure for Fluorescence Resonance Energy Transfer (FRET) melting assay Oligonucleotides labeled at 5’ with FAM (6-carboxyfluorescein) as donor fluorophore and TAMRA (6 - carboxytetramethylrhodamine) at 3’ as the acceptor fluorophore were purchased from STAB VIDA (Portugal). Each oligonucleotide was initial ly diluted to 100 µM in water (Molecular Biology Reagent, Sigma). Stock solutions of 20 µM and subsequent dilutions were made with FRET buffer (60 mM KCl, potassium cacodylate, pH 7.4). Tagged oligonucleotides at 0.4 µM were annealed by heating at 90 -95 °C for 10 min, followed by slow cooling to room temperature. St ock solutions of compounds (1 mM) were prepared in 10% DMSO. Subsequent dilutions were performed using FRET buffer. Annealed DNA (50 µL) and test compound solutions (50 µL) were distributed across 96-well RT-PCR plates (PCR-96-FLT-C, Axygen, Inc). Fluorescence readings (performed in a 7300 RT -PCR equipment from Applied Biosystems) were taken at intervals of 0.5 °C in the range 31 –95 °C, with the temperature being maintained for 30 seconds prior to each reading. Experiments were performed in triplicate. Fina l analysis of the data was carried out with GraphPad Prism v.5.0 (GraphPad Software Inc., La Jolla, CA, USA).
(§5) The advanced curve-fitting function in GraphPad Prism (nonlinear regression fit) was used for calculation of ΔTm values. Only results with fitting r2 values > 0.75 (std error < 0.25) were considered.
(§6) Table S2. Synthetic oligonucleotides used in FRET experiments.

Series [6] has as its system F21T G-quadruplex DNA. Nature of the series: FRET melting assay, G-quadruplex DNA. The format is binding. How it is done: as §4, §5, §6
For series [7], the system named is H1299 human non-small cell lung carcinoma. Kind of series: Antiproliferative activity, MTT. The format is cell-based. The settings on record: Homo sapiens, NCI-H1299, 48 h, 48 h treatment, read-out: Antiproliferative Activity (IC50 ± SD) H1299. The protocol:
as §1, §2, §3

In series [8] the test system is HT1080 human fibrosarcoma. Kind of series: Antiproliferative activity, MTT. Format: cell-based. The settings on record: HT-1080, 48 h treatment, read-out: Antiproliferative Activity (IC50 ± SD) HT1080. How it is done:
as §1, §2, §3

Series [9] relates to M14 human melanoma. Nature of the series: Antiproliferative activity, MTT. The format is cell-based. The settings on record: 48 h treatment, read-out: Antiproliferative Activity (IC50 ± SD) M14. How it is done: as §1, §2, §3
Series [10] concerns HeLa epithelial cervix carcinoma. Kind of series: Antiproliferative activity, MTT. The settings on record: Homo sapiens, 48 h treatment, read-out: Antiproliferative Activity (IC50 ± SD) HeLa. The format is cell-based. How it is done: as §1, §2, §3
In series [11] the test system is HCT116 human colorectal carcinoma. Kind of series: Antiproliferative activity, MTT. The format is cell-based. The settings on record: HCT-116, 48 h treatment, read-out: Antiproliferative Activity (IC50 ± SD) HCT116. The protocol: as §1, §2, §3

SMILES strings stand for the structures. Structures can show the parent of a compound that is named as a salt. Where only a bound is given, the exact number is not on record here.

T1 sequence (Q9Y6K1 634-912 limits assumed): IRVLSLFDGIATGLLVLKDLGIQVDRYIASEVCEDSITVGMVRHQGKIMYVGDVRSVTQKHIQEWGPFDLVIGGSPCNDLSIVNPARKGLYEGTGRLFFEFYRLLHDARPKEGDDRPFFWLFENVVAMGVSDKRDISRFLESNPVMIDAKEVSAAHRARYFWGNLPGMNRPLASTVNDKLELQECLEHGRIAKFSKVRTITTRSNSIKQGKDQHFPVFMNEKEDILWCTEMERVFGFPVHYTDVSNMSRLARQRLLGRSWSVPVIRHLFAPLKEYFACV

The melting point is the temperature of the solid-liquid transition. As for `Cc1cc(Nc2cccc(CNC(=O)c3cccc(Nc4ccnc5ccccc45)c3)c2)nc(N)n1` (as salt: hydrochloride) [Compound 1c], the melting point lay within 183 to 185 °C.

The term IC50 denotes the midpoint of a concentration-inhibition curve. A word on the EC50: it is the concentration needed to bring the measured effect to its halfway point. The compound `Cc1cc(Nc2cccc(NC(=O)c3cccc(CNc4ccnc5ccccc45)c3)c2)nc(N)n1` [Compound 1a] gave a melting point of 153 to 155 °C. For the same compound, the IC50 in series [1] came to 18.1 ± 2.4 µM. In addition, the IC50 in series [2] turned out to be 1.4 ± 0.2 µM. Further, in series [3], the concentration giving a half-maximal response (EC50) is 21 ± 3.1 µM.

`Cc1cc(Nc2cccc(NC(=O)Cc3cccc(Nc4ccnc5ccccc45)c3)c2)nc(N)n1` [Compound 1b]: the melting point fell in the range of 163 to 165 °C. For the same compound, the IC50 in [1] was 40 ± 5 µM. The IC50 in series [2] was found to be 37 ± 5.9 µM. For the same compound, the EC50 in [3] was determined as 19 ± 2 µM.

On to `Cc1cc(NCc2cccc(NC(=O)c3cccc(Nc4ccnc5ccccc45)c3)c2)nc(N)n1` [Compound 1d], for which the melting point lay in the range of 260 to 262 °C. Also, the IC50 in series [1] came to 67 ± 7.4 µM. Further, the half-maximal inhibitory concentration (IC50) in [2] was 67 ± 8.8 µM. Further, the EC50 in series [3] turned out to be 51 ± 10 µM.

In turn, `Cc1cc(Nc2cccc(C(=O)Nc3cccc(Nc4ccnc5ccccc45)c3)c2)nc(N)n1` [Compound 1e] came in with a melting point of 227 to 229 °C. Moreover, the half-maximal inhibitory concentration (IC50) in [1] turned out to be 9.9 ± 1.1 µM. For the same compound, the IC50 in series [2] amounted to 4.8 ± 0.6 µM. Further, in series [3], the EC50 was found to be 21 ± 4 µM.

As to `Cc1cc(Nc2cccc(NCc3cccc(Nc4ccnc5ccccc45)c3)c2)nc(N)n1` [Compound 1f], the melting point lay within 98 to 100 °C. The IC50 in series [1] worked out at 1.9 ± 0.1 µM. Further, in [2], the IC50 came out at 4.4 ± 0.7 µM. For the same compound, the EC50 in series [3] came out at 12 ± 3 µM.

For `Cc1cc(Nc2ccc(NC(=O)c3cccc(Nc4cc(C)nc(N)n4)c3)cc2)nc(N)n1` [Compound 3a], the melting point was 218 to 220 °C. The 50% inhibitory concentration (IC50) in series [1] is 83 ± 10.2 µM. Moreover, the IC50 in [2] is 52.4 ± 7.6 µM. For the same compound, in [3], the EC50 was 41 ± 10 µM.

`Cc1cc(Nc2cccc(NC(=O)c3cccc(Nc4cc(C)nc(N)n4)c3)c2)nc(N)n1` [Compound 3b] came in with a melting point of 105 to 107 °C. In addition, in [1], the IC50 was 225 ± 28.5 µM. In addition, the concentration for half-maximal inhibition (IC50) in series [2] was 123 ± 15 µM. Further, in series [3], the EC50 is greater than 100 µM.

`Cc1cc(Nc2ccc(C(=O)Nc3cccc(Nc4cc(C)nc(N)n4)c3)cc2)nc(N)n1` [Compound 3c]: the melting point was in the range of 292 to 294 °C. The IC50 in series [1] was found to be 125 ± 16.2 µM. In addition, in series [2], the IC50 was 66 ± 9.2 µM. For the same compound, the EC50 in [3] was 13 ± 0.9 µM.

For `O=C(Nc1cccc(NC(=O)c2cccc(Nc3ccnc4ccccc34)c2)c1)OCc1ccccc1` [Compound 4b], in [4], the “effect on sub-G1 peaks vs untreated cells” value is on record as “remarkable increase”. The “KRAS ∆Tm” value in series [5] (5 µM) is 2.8 ºC; in series [5] (10 µM), 2.5 ºC. Also, the “F21T ∆Tm” value in [6] (5 µM) is reported as 3.8 ºC; in series [6] (10 µM) it was 1.5 ºC. In addition, the concentration for half-maximal inhibition (IC50) in series [7] was determined as 40 ± 4.8 µM; in series [8], 13.1 ± 1.5 µM; in series [1] it was 1.9 ± 0.3 µM; in series [9], 15.3 ± 2 µM; in [10] it was 65 ± 7.3 µM; in series [11], 20.5 ± 2.8 µM. Further, in series [2], the concentration for half-maximal inhibition (IC50) came out at 3.2 ± 0.6 µM. For the same compound, the EC50 in series [3] came to 13 ± 1.4 µM.

Consider `C[n+]1ccc(-c2c3nc(c(-c4cc[n+](C)cc4)c4ccc([nH]4)c(-c4cc[n+](C)cc4)c4ccc([nH]4)c(-c4cc[n+](C)cc4)c4nc2C=C4)C=C3)cc1` [Py4P, reference compound], for which the “KRAS ∆Tm” value in series [5] (positive control at 1 µM) is given as 18.8 ºC. Moreover, in series [6] (positive control at 1 µM), the “F21T ∆Tm” value is recorded as 21.2 ºC.
